For four compounds, IC50 results are on record in paper PMC9386806 (ACS Omega, 2022).

The experiment deals with hCA II (Homo sapiens, UniProt P00918). Description: biochemical.
With `COC(=O)C1=C(N)Oc2c(c(=O)oc3ccc(C)cc23)C1c1ccccc1OCc1cc2ccccc2oc1=O` (stereo not shown) [Compound 12e, 2-Amino-9-methyl-5-oxo-4-[2-(2-oxo-2H-chromen-3-ylmethoxy)-phenyl]-4H,5H-pyrano[3,2-c]chromene-3-carboxylic Acid Methyl Ester], the IC50 (commonly the point on the concentration scale where inhibition reaches its midpoint) came out at 21.8 ± 3.32 µM.

Consider `COC(=O)C1=C(N)Oc2c(c(=O)oc3cc(O)ccc23)C1c1ccccc1OCc1cc2ccccc2oc1=O` (stereo not shown) [Compound 12i, 2-Amino-8-hydroxy-5-oxo-4-[2-(2-oxo-2H-chromen-3-ylmethoxy)-phenyl]-4H,5H-pyrano[3,2-c]chromene-3-carboxylic Acid Methyl Ester], for which the concentration for half-maximal inhibition (IC50) was 4.91 ± 1.13 µM.

Compound `N#CC1=C(N)Oc2c(c(=O)oc3cc(O)ccc23)C1c1ccccc1OCc1cc2ccccc2oc1=O` (stereo not shown) [Compound 12h, 2-Amino-8-hydroxy-5-oxo-4-[2-(2-oxo-2H-chromen-3-ylmethoxy)-phenyl]-4H,5H-pyrano[3,2-c]chromene-3-carbonitrile] returned an IC50 of 4.55 ± 0.22 µM. To `CCOC(=O)C1=C(N)Oc2c(c(=O)oc3cc(O)ccc23)C1c1ccccc1OCc1cc2ccccc2oc1=O` (stereo not shown) [Compound 12j, 2-Amino-8-hydroxy-5-oxo-4-[2-(2-oxo-2H-chromen-3-ylmethoxy)-phenyl]-4H,5H-pyrano[3,2-c]chromene-3-carboxylic Acid Ethyl Ester] belongs 7.78 ± 0.08 µM.
